This note sets out measurements from ChEMBL document CHEMBL1132748, “Synthesis and antiviral activities of N-9-oxypurine 1,3-dioxolane and 1,3-oxathiolane nucleosides” (2000).

Molecules are shown by their SMILES. Calls of active or inactive are those of the source. The rule behind the calls is not given here.

The test system of one assay is Human betaherpesvirus 5. In words: Anti-herpetic activity and cytotoxicity evaluated against HCMV-1 (WFI strain) in plaque reduction assay in vero cells and Flow 2002 (human fibroblast) cell; inactive. Format: functional, organism-based.
Assay [1] has as its system Human immunodeficiency virus. The assay is described as follows: Antiviral activity was assessed against HIV in MT-4 (human T-helper) cells at a concentration up to 100 ug/mL; inactive. Format: functional, organism-based.
For a further assay, the species on record is Homo sapiens. In words: Cytotoxicity was assessed against in MT-4 (human T-helper) cells at a concentration up to 100 ug/mL; inactive. In kind it is functional, cell-based.
Assay [2] relates to Human alphaherpesvirus 2. The assay is described as follows: Anti-herpetic activity and cytotoxicity was evaluated against HSV-2 (186 strain) in plaque reduction assay in vero cells and Flow 2002 (human fibroblast) cell; inactive. In kind it is functional, organism-based.
Another assay deals with Hepatitis B virus. The assay is described as follows: Antiviral activity was assessed against HBV in hepatoma cell line 2.2.15; inactive. The note with it: HepG2 2.2.15. Format: functional, organism-based.
The subject of assay [3] is Human alphaherpesvirus 1. The assay is described as follows: Anti-herpetic activity and cytotoxicity was evaluated against HSV-1 (KOS strain) in plaque reduction assay in vero cells and Flow 2002 (human fibroblast) cell; inactive. Format: functional, organism-based.
The test system of assay [4] is Human alphaherpesvirus 1. The assay is described as follows: Anti-herpetic activity and cytotoxicity of compound was evaluated against HSV-1 (KOS strain) at concentration up to 100 ug/mL; inactive. In kind it is functional, organism-based.
In assay [5] the test system is Human alphaherpesvirus 2. The assay is described as follows: Anti-herpetic activity and cytotoxicity of compound was evaluated against HSV-2 (186 strain) at concentration 100 ug/mL; inactive. Format: functional, organism-based.
In assay [6] the test system is Human immunodeficiency virus. The assay is described as follows: Cytotoxicity of compound was assessed against HIV in MT-4 (human T-helper) cells; inactive. Format: functional.

As to `OCC1OC[C@@H](On2cnc3c(Cl)ncnc32)O1` (stereo not given in full), the result (in the assay with Human betaherpesvirus 5; in assay [1]; in the assay listed under Homo sapiens; with Human alphaherpesvirus 2 [2]; with Hepatitis B virus; in the assay on Human alphaherpesvirus 1 [3]) was inactive.
Consider `COc1ncnc2c1ncn2O[C@@H]1COC(CO)O1` (stereo not given in full), for which the result (in the assay with Human betaherpesvirus 5; in [1]; in the assay listed under Homo sapiens; in the assay with Human alphaherpesvirus 2 [2]; in the assay with Hepatitis B virus; with Human alphaherpesvirus 1 [3]) was inactive.
As to `Nc1nc(O)c2ncn(O[C@@H]3COC(CO)O3)c2n1` (stereo not given in full), the outcome in the assay on Human alphaherpesvirus 1 [4] and in the assay on Human alphaherpesvirus 2 [5] was inactive.
Consider `OCC1OC[C@@H](On2cnc3c(O)ncnc32)O1` (stereo not given in full), for which the outcome (in the assay on Human betaherpesvirus 5; in [1]; in the assay filed under Homo sapiens; in the assay on Human alphaherpesvirus 2 [2]; in the assay with Hepatitis B virus; with Human alphaherpesvirus 1 [3]) was inactive.
On to `OCC1O[C@H](On2cnc3c(Cl)ncnc32)CS1` (stereo not given in full), for which the outcome (with Human betaherpesvirus 5; in [1]; in the assay listed under Homo sapiens; with Human alphaherpesvirus 2 [2]; in the assay with Hepatitis B virus; with Human alphaherpesvirus 1 [3]) was inactive.
As for `OCC1O[C@H](On2cnc3c(O)ncnc32)CS1` (stereo not given in full), the outcome (in the assay on Human betaherpesvirus 5; in assay [1]; in the assay filed under Homo sapiens; in the assay with Human alphaherpesvirus 2 [2]; in the assay on Hepatitis B virus; in the assay with Human alphaherpesvirus 1 [3]) was inactive.
For `OCC1OC[C@H](On2cnc3c(Cl)ncnc32)O1` (stereo not given in full), the result (in the assay on Human betaherpesvirus 5; in assay [1]; in the assay listed under Homo sapiens; with Human alphaherpesvirus 2 [2]; in the assay on Hepatitis B virus; with Human alphaherpesvirus 1 [3]) was inactive.
Take `OCC1OC[C@H](On2cnc3c(O)ncnc32)O1` (stereo not given in full): the outcome (in the assay on Human betaherpesvirus 5; in assay [1]; in the assay filed under Homo sapiens; in the assay with Human alphaherpesvirus 2 [2]; in the assay with Hepatitis B virus; in the assay with Human alphaherpesvirus 1 [3]) was inactive.
For the molecule `COc1ncnc2c1ncn2O[C@H]1COC(CO)O1` (stereo not given in full), the result (in the assay with Human betaherpesvirus 5; in assay [1]; in the assay listed under Homo sapiens; in the assay on Human alphaherpesvirus 2 [2]; in the assay with Hepatitis B virus; in the assay with Human alphaherpesvirus 1 [3]) was inactive.
Take `OCC1O[C@@H](On2cnc3c(Cl)ncnc32)CS1` (stereo not given in full): the outcome (with Human betaherpesvirus 5; in assay [1]; in the assay listed under Homo sapiens; with Human alphaherpesvirus 2 [2]; in the assay on Hepatitis B virus; in the assay on Human alphaherpesvirus 1 [3]) was inactive.
Consider `Nc1nc(O)c2ncn(O[C@H]3COC(CO)O3)c2n1` (stereo not given in full), for which the result in the assay with Human alphaherpesvirus 1 [4] and with Human alphaherpesvirus 2 [5] was inactive.
For the molecule `COc1ncnc2c1ncn2O[C@@H]1CSC(CO)O1` (stereo not given in full), the result (in the assay on Human betaherpesvirus 5; in assay [1]; in the assay listed under Homo sapiens; in the assay with Human alphaherpesvirus 2 [2]; in the assay on Hepatitis B virus; with Human alphaherpesvirus 1 [3]) was inactive.
Take `Nc1ncnc2c1ncn2O[C@@H]1CSC(CO)O1` (stereo not given in full): the outcome (in the assay with Human betaherpesvirus 5; in assay [1]; in the assay listed under Homo sapiens; in the assay on Human alphaherpesvirus 2 [2]; in the assay with Hepatitis B virus; with Human alphaherpesvirus 1 [3]) was inactive.
With `COc1ncnc2c1ncn2O[C@H]1CSC(CO)O1` (stereo not given in full), the result (in the assay on Human betaherpesvirus 5; in [1]; in the assay listed under Homo sapiens; in the assay on Human alphaherpesvirus 2 [2]; with Hepatitis B virus; with Human alphaherpesvirus 1 [3]) was inactive.
As to `Nc1ncnc2c1ncn2O[C@H]1COC(CO)O1` (stereo not given in full), the outcome (in the assay with Human betaherpesvirus 5; in assay [1]; in the assay filed under Homo sapiens; in the assay on Human alphaherpesvirus 2 [2]; in the assay with Hepatitis B virus; in the assay with Human alphaherpesvirus 1 [3]) was inactive.
Regarding `OCC1O[C@@H](On2cnc3c(O)ncnc32)CS1` (stereo not given in full), the result (in the assay on Human betaherpesvirus 5; in assay [1]; in the assay on Human alphaherpesvirus 2 [2]; in the assay with Hepatitis B virus; in the assay on Human alphaherpesvirus 1 [3]) was inactive. In assay [6], this molecule showed a CD50 of 10 µg/mL.
On to `Nc1ncnc2c1ncn2O[C@H]1CSC(CO)O1` (stereo not given in full), for which the outcome (in the assay on Human betaherpesvirus 5; in [1]; in the assay listed under Homo sapiens; in the assay with Human alphaherpesvirus 2 [2]; with Hepatitis B virus; with Human alphaherpesvirus 1 [3]) was inactive.
Regarding `Nc1ncnc2c1ncn2O[C@@H]1COC(CO)O1` (stereo not given in full), the result (in the assay with Human betaherpesvirus 5; in [1]; in the assay listed under Homo sapiens; in the assay with Human alphaherpesvirus 2 [2]; in the assay with Hepatitis B virus; in the assay with Human alphaherpesvirus 1 [3]) was inactive.
